Results published in patent US6352970B1, “Treatment of skeletal disorders” (Pfizer Inc., priority 1998, dated 2002).

System: ob/ob mouse
Assay: Leptin administration for four weeks in ob/ob mouse, bone measured by peripheral quantitative computerized tomography
Format: in vivo
Source text: Administration of leptin for four weeks increased femur length by 6% and increased cortical bone volumetric content by 18%, as determined by peripheral quantitative computerized tomography.

[1] = peripheral quantitative computerized tomography

For “leptin: a product of the obese gene, a 16 kDa protein produced by mature adipocytes and secreted in plasma”, which “increase in femur length” value is on record?
The value was 6%.

What about the bone volumetric density [1] of the same substance?
The bone volumetric density was “unchanged”.

What about the “increase in cortical bone volumetric content” value [1] of the same substance?
The value was 18%.
